Measurements from patent publication US6737383B1, “Herbicidal oxadiazolidines” (priority 1999, dated 2004).

Tests used:
crabgrass = assay: Test B pre/postemergence crabgrass; type: in vivo, Digitaria sanguinalis
How it was run: (§1)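 Response is a visual 0-to-10 score relative to untreated plants, where 0 means no effect and 10 means complete control, taken twelve to sixteen days after application. Treatments went onto soil at planting and onto foliage of 1- to 4-leaf plants, using a surfactant-containing non-phytotoxic solvent.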

wild oat = assay: Test B pre/postemergence wild oat; type: in vivo, Avena fatua
How it was run: as §1

smallflower flatsedge = assay: Test B flood test smallflower flatsedge; type: in vivo, Cyperus difformis
How it was run: (§2)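 Each value is a visual injury score relative to controls, with 10 meaning complete control and 0 no effect. Evaluation took place twelve to sixteen days after the 2-leaf-stage plants were treated and kept in the greenhouse.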

wheat = assay: Test B pre/postemergence wheat; type: in vivo, Triticum aestivum
How it was run: as §1

cocklebur = assay: Test B pre/postemergence cocklebur; type: in vivo, Xanthium strumarium
How it was run: as §1

bedstraw = assay: Test B pre/postemergence bedstraw; type: in vivo, Galium aparine; conditions: Postemergence
How it was run: as §1

surinam grass = assay: Test B pre/postemergence surinam grass; type: in vivo, Brachiaria decumbens
How it was run: as §1

giant foxtail = assay: Test B pre/postemergence giant foxtail; type: in vivo, Setaria faberii
How it was run: as §1

sugar beet = assay: Test B pre/postemergence sugar beet; type: in vivo, Beta vulgaris
How it was run: as §1

purple nutsedge = assay: Test B pre/postemergence purple nutsedge; type: in vivo, Cyperus rotundus
How it was run: as §1

rape = assay: Test B pre/postemergence rape; type: in vivo, Brassica napus
How it was run: as §1

bamyardgrass = assay: Test B flood test barnyardgrass; type: in vivo, Echinochloa crus-galli
How it was run: as §2

corn = assay: Test B pre/postemergence corn; type: in vivo, Zea mays
How it was run: as §1

morningglory = assay: Test B pre/postemergence morningglory; type: in vivo, Ipomoea hederacea
How it was run: as §1

velvetleaf = assay: Test B pre/postemergence velvetleaf; type: in vivo, Abutilon theophrasti
How it was run: as §1

blackgrass = assay: Test B pre/postemergence blackgrass; type: in vivo, Alopecurus myosuroides
How it was run: as §1

pigweed = assay: Test B pre/postemergence pigweed; type: in vivo, Amaranthus retroflexus
How it was run: as §1

soybean = assay: Test B pre/postemergence soybean; type: in vivo, Glycine max
How it was run: as §1

duck salad = assay: Test B flood test duck salad; type: in vivo, Heteranthera limosa
How it was run: as §2

rice = assay: Test B flood test rice; type: in vivo, Oryza sativa
How it was run: as §2

[1] = Postemergence, Rate 125 g/ha, scale 0 to 10, 0 is no effect, 10 is complete control
[2] = Postemergence, Rate 250 g/ha, scale 0 to 10
[3] = Postemergence, Rate 500 g/ha, scale 0 to 10, 0 is no effect, 10 is complete control
[4] = Preemergence, Rate 62 g/ha, scale of 0 to 10 where 0 is no effect and 10 is complete control
[5] = Preemergence, Rate 125 g/ha, scale 0 to 10, 0 is no effect, 10 is complete control
[6] = Preemergence, Rate 500 g/ha, scale 0 to 10, 0 is no effect, 10 is complete control
[7] = Rate 62 g/ha, Postemergence, scale 0 to 10, 0 no effect, 10 complete control
[8] = Rate 62 g/ha, flood test species, Pre-emergence, visual evaluation after twelve to sixteen days
[9] = Rate 125 g/ha, under heading Pre-emergence, flood test species, visual evaluation after twelve to sixteen days
[10] = Rate 250 g/ha, Pre-emergence (flood test species), scale 0 to 10, 0 is no effect, 10 is complete control
[11] = Rate 500 g/ha, Pre-emergence section of Table B, 0 to 10 scale (0 no effect, 10 complete control)
[12] = Preemergence, Rate 250 g/ha, scale 0 to 10, 0 is no effect, 10 is complete control

## CC(C)N(C(=O)n1oc(=O)n(CC(=O)C2CC2)c1=O)c1ccc(F)cc1 [Compound 488]
crabgrass; [1]
  Crabgrass plant response rating: 7
crabgrass; [2]
  Crabgrass plant response rating: 8
crabgrass; [3]
  Plant response rating, Crabgrass: 9
crabgrass; [4]
  Plant response rating, Crabgrass: 8
crabgrass; [5]
  Crabgrass plant response rating: 10
crabgrass; [6]
  Crabgrass plant response rating: 10
Wild oat; [1]
  Wild oats plant response rating: 0
Wild oat; [3]
  Plant response rating, Wild oats: 5
Wild oat; [4]
  Plant response rating, Wild oats: 3
Wild oat; [5]
  Wild oats plant response rating: 8
Wild oat; [6]
  Wild oats plant response rating: 10
Wild oat; [7]
  Wild oats plant response rating: 0
Smallflower flatsedge; [8]
  Plant response rating, S. Flatsedge (0 to 10 scale, 0 is no effect, 10 is complete control): 0
Smallflower flatsedge; [9]
  S. Flatsedge plant response rating (0 to 10 scale, 0 is no effect, 10 is complete control): 0
Smallflower flatsedge; [10]
  S. Flatsedge plant response rating: 0
Smallflower flatsedge; [11]
  S. Flatsedge plant response rating: 0
wheat; [1]
  Wheat plant response rating: 0
wheat; [3]
  Plant response rating, Wheat: 3
wheat; [4]
  Plant response rating, Wheat: 0
wheat; [5]
  Wheat plant response rating: 0
wheat; [6]
  Wheat plant response rating: 5
wheat; [7]
  Wheat plant response rating: 0
cocklebur; [1]
  Cocklebur plant response rating: 0
cocklebur; [2]
  Cocklebur plant response rating: 0
cocklebur; [3]
  Plant response rating, Cocklebur: 0
cocklebur; [4]
  Plant response rating, Cocklebur: 0
cocklebur; [5]
  Cocklebur plant response rating: 0
cocklebur; [12]
  Cocklebur plant response rating: 0
cocklebur; [6]
  Cocklebur plant response rating: 0
cocklebur; [7]
  Cocklebur plant response rating: 0
bedstraw; Rate 125 g/ha, scale 0 to 10, 0 is no effect, 10 is complete control
  Bedstraw plant response rating: 2
bedstraw; Rate 250 g/ha, scale 0 to 10
  Bedstraw plant response rating: 4
bedstraw; Rate 500 g/ha, scale 0 to 10, 0 is no effect, 10 is complete control
  Plant response rating, Bedstraw: 9
bedstraw; Rate 62 g/ha, scale 0 to 10, 0 no effect, 10 complete control
  Bedstraw plant response rating: 0
Surinam grass; [1]
  B. signalgrass plant response rating: 4
Surinam grass; Postemergence, Rate 250 g/ha, scale 0 to 10, 0 no effect, 10 complete control
  B. signalgrass plant response rating: 6
Surinam grass; [3]
  Plant response rating, B. signalgrass: 7
Surinam grass; [4]
  Plant response rating, B. signalgrass: 4
Surinam grass; [5]
  B. signalgrass plant response rating: 7
Surinam grass; [12]
  B. signalgrass plant response rating: 7
Surinam grass; [6]
  B. signalgrass plant response rating: 10
Surinam grass; [7]
  B. signalgrass plant response rating: 0
Giant foxtail; [1]
  Giant foxtail plant response rating: 8
Giant foxtail; [3]
  Plant response rating, Giant foxtail: 9
Giant foxtail; [4]
  Plant response rating, Giant foxtail: 9
Giant foxtail; [5]
  Giant foxtail plant response rating: 10
Giant foxtail; [6]
  Giant foxtail plant response rating: 10
Giant foxtail; [7]
  Giant foxtail plant response rating: 5
Sugar beet; [1]
  Sugarbeets plant response rating: 0
Sugar beet; [3]
  Plant response rating, Sugarbeets: 1
Sugar beet; [4]
  Plant response rating, Sugarbeets: 0
Sugar beet; [5]
  Sugarbeets plant response rating: 4
Sugar beet; [6]
  Sugarbeets plant response rating: 7
Sugar beet; [7]
  Sugarbeets plant response rating: 0
Purple nutsedge; [1]
  Nutsedge plant response rating: 0
Purple nutsedge; [3]
  Plant response rating, Nutsedge: 2
Purple nutsedge; [4]
  Plant response rating, Nutsedge: 0
Purple nutsedge; [5]
  Nutsedge plant response rating: 0
Purple nutsedge; [6]
  Nutsedge plant response rating: 0
Purple nutsedge; [7]
  Nutsedge plant response rating: 0
rape; [1]
  Rape plant response rating: 0
rape; [3]
  Plant response rating, Rape: 0
rape; [4]
  Plant response rating, Rape: 1
rape; [5]
  Rape plant response rating: 7
rape; [6]
  Rape plant response rating: 10
rape; [7]
  Rape plant response rating: 0
bamyardgrass; [8]
  Plant response rating, Barnyardgrass (0 to 10 scale, 0 is no effect, 10 is complete control): 0
bamyardgrass; [9]
  Barnyardgrass plant response rating (0 to 10 scale, 0 is no effect, 10 is complete control): 0
bamyardgrass; [10]
  Barnyardgrass plant response rating: 0
bamyardgrass; [11]
  Barnyardgrass plant response rating: 0
corn; [1]
  Corn plant response rating: 0
corn; [2]
  Corn plant response rating: 0
corn; [3]
  Plant response rating, Corn: 0
corn; [4]
  Plant response rating, Corn: 0
corn; [5]
  Corn plant response rating: 0
corn; [6]
  Corn plant response rating: 6
corn; [7]
  Corn plant response rating: 0
morningglory; [1]
  Morningglory plant response rating: 2
morningglory; [3]
  Plant response rating, Morningglory: 8
morningglory; [4]
  Plant response rating, Morningglory: 0
morningglory; [5]
  Morningglory plant response rating: 0
morningglory; [6]
  Morningglory plant response rating: 0
morningglory; [7]
  Morningglory plant response rating: 1
velvetleaf; [1]
  Velvetleaf plant response rating: 0
velvetleaf; [3]
  Plant response rating, Velvetleaf: 1
velvetleaf; [4]
  Plant response rating, Velvetleaf: 0
velvetleaf; [5]
  Velvetleaf plant response rating: 2
velvetleaf; [6]
  Velvetleaf plant response rating: 6
velvetleaf; [7]
  Velvetleaf plant response rating: 0
blackgrass; [1]
  Blackgrass plant response rating: 8
blackgrass; [2]
  Blackgrass plant response rating: 8
blackgrass; [3]
  Plant response rating, Blackgrass: 8
blackgrass; [4]
  Plant response rating, Blackgrass: 5
blackgrass; [5]
  Blackgrass plant response rating: 8
blackgrass; [12]
  Blackgrass plant response rating: 8
blackgrass; [6]
  Blackgrass plant response rating: 10
blackgrass; [7]
  Blackgrass plant response rating: 1
pigweed; [1]
  Redroot pigweed plant response rating: 0
pigweed; [3]
  Plant response rating, Redroot pigweed: 2
pigweed; [4]
  Plant response rating, Redroot pigweed: 4
pigweed; [5]
  Redroot pigweed plant response rating: 10
pigweed; [6]
  Redroot pigweed plant response rating: 10
pigweed; [7]
  Redroot pigweed plant response rating: 0
soybean; [1]
  Soybean plant response rating: 4
soybean; [3]
  Plant response rating, Soybean: 5
soybean; [4]
  Plant response rating, Soybean: 0
soybean; [5]
  Soybean plant response rating: 0
soybean; [6]
  Soybean plant response rating: 1
soybean; [7]
  Soybean plant response rating: 4
Duck salad; [8]
  Plant response rating, Ducksalad (0 to 10 scale, 0 is no effect, 10 is complete control): 0
Duck salad; [9]
  Ducksalad plant response rating (0 to 10 scale, 0 is no effect, 10 is complete control): 0
Duck salad; [10]
  Ducksalad plant response rating: 0
Duck salad; [11]
  Ducksalad plant response rating: 0
rice; [8]
  Plant response rating, Rice (0 to 10 scale, 0 is no effect, 10 is complete control): 0
rice; [9]
  Rice plant response rating (0 to 10 scale, 0 is no effect, 10 is complete control): 0
rice; [10]
  Rice plant response rating: 0
rice; [11]
  Rice plant response rating: 0
